Assay results from patent US11690841B2, “Glycolysis-activating agents for treatment or prevention of disease” (Queen Mary University of London, priority 2017, dated 2023).

Columns and labels:
Tregs [1] = experiment: T cell recruitment in the peritoneum (labelled drug-treated Tregs injected into IFN-γ-treated syngeneic recipients); format: in vivo, mice; conditions: for Treg migration / trafficking in vivo: drug-treated PKH26-labelled Tregs injected i.v. into recipients given IFN-γ i.p. 48 hours earlier, harvested after 24 hours
Protocol: FIG. 3. Drug- or vehicle-treated Tregs labeled with the fluorescent intravital dye PKH26 were injected i.v. into syngeneic recipients treated with IFN-γ i.p. 48 hours earlier. Cells were harvested from the indicated tissues after 24 hours and analyzed by flow cytometry. Representative dot plots from 3 animals are shown in panels A and C. The mean absolute number of labeled cells recovered in 4 animals±SD is shown in panels B and D. (N=1)
(§1) FIG. 20. A: AZD1656 (GCK activator, 1 μM) and vehicle-treated Tregs (2 hours in insulin-free medium) were labeled with different intravital fluorescent dyes, and co-injected into syngeneic recipients that had received IFN-γ i.p. 48 hours earlier. Cells were recovered from the peritoneum or spleen after 24 hours and analyzed by flow cytometry. Representative dot plots are shown. The bar graphs indicate mean absolute number of labeled cells retrieved±SD (n=4 N=2). B-C: expression of PCNA by Tregs stimulated with allogeneic DCs following treatment with either AZD1656 (B) or Clotrimazole (CLT, 1 μM, 2 hours, C) or vehicle alone was measured by flow cytometry. NS, non-stimulated control Tregs. Representative histograms are shown. (n=3, N=3).
FIG. 21. A: ECAR of Treg cells activated with recombinant ICAM-1 or Fc control. CLT or vehicle, as well as other glycolysis-affecting drugs were added as indicated. B: CLT- or vehicle-treated Tregs underwent CD28 or isotype-matched antibody-stimulation, labelled with different intravital fluorescent dyes and injected i.v. in syngeneic recipients that had received IFN-γ i.p. 48 hours earlier. Cells were recovered from the peritoneum (P) or spleen (S) after 24 hours and analyzed by flow cytometry. Representative dot plots are shown. The column graphs indicate mean absolute number of labeled cells retrieved±SD (n=3 N=2). * p<0.05 ***p<0.005; ****p<0.001.
T cell recruitment in the peritoneum. To observe in vivo recruitment of T cells we used the previously described model of T cell recruitment (Mirenda et al., 2007). Either PKH26 or CFSE or DDAO-SE-labelled T cells (10^7) were injected intravenously (i.v.) into mice that hd received IFN-γ (600U) via intraperitoneal injection (i.p.) 48 to 72 hours earlier. Labeled T cells recovered via peritoneal lavage were analyzed 16 hours later using flow cytometry. In addition, localization of Tregs to the spleen, where entry occurs in a passive manner (Fu et al., 2016), was analyzed to ensure that similar numbers/proportion of labeled cells were injected or co-injected in all recipients (internal control).

Tregs [2] = experiment: Treg trans-endothelial migration and chemotaxis transwell assays; format: cell-based, mouse; conditions: Tregs pre-treated with drug for 4 hours; through IFN-γ-treated EC monolayers or in response to CCL22 / CXCL10
Protocol: FIG. 1. Glycolysis fuels Treg migration. Ex vivo expanded Tregs pre-treated with the indicated drugs or vehicle for 4 hours were left to migrate through 3 μm-pore transwells layered with IFN-γ-treated syngeneic EC monolayers (A-B) or in response chemokine CCL22 through bare filter 5 μm-pore transwells (C-D). Results are expressed as percentage of migrated cells after 24 hours (A-B, n=4, N=2) or at the indicated time-points (C, n=3)±SD. The fold increase in migration was calculated by dividing experimental migration by spontaneous migration measured at 6 hours in two experiments of identical design performed in triplicates±SD.
FIG. 2. Activated Treg phenotype and function and effect of exposure to metabolism-modifying drugs. Tregs were expanded as previously described (Fu et al., 2014). A-B Tregs were treated with the indicated metabolism-targeting drugs for 4-6 hours and extensively washed. Migration of drug-exposed Tregs in response to CXCL10 (300 ng/ml) was assessed by a transwell-based assay. Results are expressed as the mean percentage of migrated cells at the indicated time points±SD. Data obtained at 6 hours from three independent experiments of identical design and normalized by spontaneous migration±SD are shown in panel B. *P<0.05.
FIG. 5. Tregs were treated with the indicated metabolism-targeting drugs for 4-6 hours, extensively washed and cultured overnight in medium alone. Migration of drug-exposed Tregs in response to CCL22 (300 ng/ml, A-B) CXCL10 (300 ng/ml, C-D) was assessed by a 6 hr chemokinesis transwell assay ([…]). Results are expressed as the mean percentage of migrated cells in a typical experiment performed in triplicate±SD (A, C). […]
Lymphocyte trans-endothelial migration and chemotaxis assays. […] The number of migrated T cells was determined by a hemocytometer counting of the cells present in the well media at different time points over a 24-h period. […] The number of migrated cells was determined by a hemocytometer.

B6Kd skin allograft = experiment: Survival of B6Kd-derived skin grafts transplanted in C57BL/6 recipients; format: in vivo, C57BL/6 mice; conditions: 10 mg/kg twice daily (20 mg/kg daily) for 2 weeks after transplantation
Text: C57B16 mice received a B6Kd skin graft or syngeneic skin as a control. […] To establish the selectivity of GCK usage by Tregs to sustain their motility, we compared the effect of pharmacological activation of GCK on the survival of B6Kd-derived skin grafts transplanted in C57BL/6 recipients. […] This schedule was designed in order to promote migration of endogenous Tregs during the early stages of the alloresponse. Control groups received saline solution with vehicle alone.

Tregs [3] = experiment: PCNA expression by Tregs stimulated with allogeneic DCs (flow cytometry); format: cell-based, mouse; conditions: 1 μM, 2 hours
Protocol: as §1
Intracellular staining. For intracellular Foxp3 staining, eBioscience Anti-Mouse/Rat Foxp3 Staining Set APC (clone FJK-165, Thermo Fisher Scientific Cat #17-5773-82) kit was used. Cells were resuspended (10^7/ml) and stained with surface antigens as mentioned above and then fixed/permeabilized for 30 minutes at 4° C. using Fixation/Permeabilization working solution made from mixing 1 part of the fixation/permebilization concentrate (eBioscience, Cat #00-5123) to 3 parts of the fixation/permebilization diluent (eBioscience, Cat #00-5223). […]

[4] = test system: CD3/CD28-stimulated Tconv cells; experiment: ECAR and OCR fluxometry (Seahorse) of anti-CD3 plus anti-CD28 stimulated CD4+ T cells; format: cell-based, mouse
Protocol: Real time analysis of the ECAR and OCR of CD4+ T cells stimulated for 24 hours with anti-CD3 plus anti-CD28 antibodies was performed using fluxometry. Wells were injected first with CLT or Vehicle. A second injection followed at the time point indicated (dashed line) introducing D-glucose into the wells. Subsequently, modulators of glycolysis (A) or cellular respiration (B) were sequentially injected at the indicated time points. […] OCR=Oxygen Consumption Rate: indirect measure of mitochondrial respiration and fatty acid oxidation (FAO). Measurement of ECAR and OCR. Real time bioenergetics analysis of extracellular acidification rates (ECAR) and oxygen consumption rates (OCR) of T cells subjected to antibody stimulation was performed using the XF analyzer (Seahorse biosciences). T cells were cultured in serum free, unbuffered XF assay medium (Seahorse biosciences, Cat #102365-100) for 1 hour. The cells were then seeded (6×10^5/well) into the seahorse XF24 cell plates for analysis. Perturbation profiling of the use of metabolic pathways by T cells was achieved by the addition of oligomycin (1 μM), FCCP (1 μM), Antimycin A (1 μM), rotenone (1 μM), D-glucose (10 mM), 2-Deoxy-D-glucose (2DG, 50 mM; all from Seahorse biosciences, Cat #103020-100 and 103015-100). […] Metabolic parameters were calculated. […]

Tregs [5] = experiment: ECAR of Treg cells activated with recombinant ICAM-1; format: cell-based, mouse; conditions: Tregs activated with recombinant ICAM-1
Protocol: A: ECAR of Treg cells activated with recombinant ICAM-1 or Fc control. CLT or vehicle, as well as other glycolysis-affecting drugs were added as indicated. […] Measurement of ECAR and OCR. Real time bioenergetics analysis of extracellular acidification rates (ECAR) and oxygen consumption rates (OCR) of T cells subjected to antibody stimulation was performed using the XF analyzer (Seahorse biosciences). T cells were cultured in serum free, unbuffered XF assay medium (Seahorse biosciences, Cat #102365-100) for 1 hour. The cells were then seeded (6×10^5/well) into the seahorse XF24 cell plates for analysis. Perturbation profiling of the use of metabolic pathways by T cells was achieved by the addition of oligomycin (1 μM), FCCP (1 μM), Antimycin A (1 μM), rotenone (1 μM), D-glucose (10 mM), 2-Deoxy-D-glucose (2DG, 50 mM; all from Seahorse biosciences, Cat #103020-100 and 103015-100). Experiments with the Seahorse system were done with the following assay conditions: 2 min mixture; 2 minutes wait; and 4-5 min measurement. Metabolic parameters were calculated. Experiments were done in at least triplicate wells.

Structure (SMILES) | Treg migration / trafficking in vivo (Tregs [1]) | Treg migration / motility in vitro (Tregs [2]) | Treg division (PCNA expression / upregulation) (Tregs [3]) | other results
O=CC[C@@H](O)[C@H](O)[C@H](O)CO [2-DG, 2-deoxyglucose] | migrated inefficiently | migrated inefficiently |  | 
COC[C@H](C)Oc1cc(Oc2cnc(C(=O)N3CCC3)cn2)cc(C(=O)Nc2cnc(C)cn2)c1 [AZD1656, 3-[5-(azetidine-1-carbonyl)pyrazin-2-yl]oxy-5-[(2S)-1-methoxypropan-2-yl]oxy-N-(5-methylpyrazin-2-yl)benzamide] |  |  | did not affect | Treg migration to the inflamed tissue (Tregs [1]; Tregs treated with 1 μM for 2 hours in insulin-free medium, co-injected with vehicle-treated Tregs, peritoneum after 24 hours): significantly enhanced; Skin graft rejection (B6Kd skin allograft): significantly delays
Clc1ccccc1C(c1ccccc1)(c1ccccc1)n1ccnc1 [CLT, Clotrimazole] |  |  | effective at inhibiting | Treg migration to inflamed peritoneum in vivo (Tregs [1]; drug-treated Tregs with CD28 or isotype antibody stimulation, injected i.v., recovered after 24 hours): did not affect; Glycolytic flux (ECAR) [4]: inhibits; Respiration (OCR) [4]: inhibits; rICAM-1-mediated induction of glycolysis (ECAR) (Tregs [5]): did not affect
CCOC(=O)[C@@]1(CCCCCCOc2ccc(Cl)cc2)CO1 [Etomoxir] |  | Treg migration does not require fatty acid oxidation |  | 
CN(C)C(=N)N=C(N)N [metformin] | increased | increased Treg motility |  | 
